Reference: patent publication US20240116942A1, “SELECTIVE CDK 4/6 INHIBITOR CANCER THERAPEUTICS” (LUNELLA BIOTECH, INC., priority 2020, published 2024)

System: CSCs (3D tumor sphere formation)
Experiment: not given
Conditions: mitochondrial inhibitors; background statement; cited from earlier work
In the case of CC[C@H]1OC(=O)[C@H](C)[C@@H](O[C@H]2C[C@@](C)(OC)[C@@H](O)[C@H](C)O2)[C@H](C)[C@@H](O[C@@H]2O[C@H](C)C[C@H](N(C)C)[C@H]2O)[C@](C)(O)C[C@@H](C)CN(C)[C@H](C)[C@@H](O)[C@]1(C)O [azithromycin], the “3D tumor sphere formation” value is given as “successfully blocked”.
In the case of COc1ccc([C@@H]2CC(=O)c3c(O)cc(O[C@@H]4O[C@H](COC(=O)CC(C)(O)CC(=O)O)[C@@H](O)[C@H](O)[C@H]4O[C@@H]4O[C@@H](C)[C@H](O)[C@@H](O)[C@H]4O)cc3O2)cc1O (stereo partly drawn) [brutieridin], the “3D tumor sphere formation” value is listed as “successfully blocked”.
For C[C@@H]1O[C@@H](O[C@@H]2[C@@H](Oc3cc(O)c4c(c3)O[C@H](c3ccc(O)cc3)CC4=O)O[C@@H](COC(=O)C[C@@](C)(O)CC(=O)O)[C@H](O)[C@H]2O)[C@@H](O)[C@H](O)[C@H]1O [melitidin], the “3D tumor sphere formation” value is listed as “successfully blocked”.
In the case of CCCCC[C@H](CC(=O)NO)C(=O)N[C@H](C(=O)N1CCC[C@H]1CO)C(C)C [actinonin], the “3D tumor sphere formation” value is given as “successfully blocked”.
In the case of COc1ccc2cc3[n+](cc2c1OC)CCc1cc2c(cc1-3)OCO2 [berberine], the “3D tumor sphere formation” value is listed as “successfully blocked”.
In the case of O=C(/C=C/c1ccc(O)c(O)c1)OCCc1ccccc1 [CAPE], the “3D tumor sphere formation” value is given as “successfully blocked”.
In the case of Cc1n[nH]c(C)c1Cc1sc2c(c1C(=O)N1C[C@H](O)CO1)c(=O)n(C)c(=O)n2CC(C)C [AR-C155858], the “3D tumor sphere formation” value is given as “successfully blocked”.
For CN(C)c1cc(NC(=O)CNC(C)(C)C)c(O)c2c1C[C@H]1C[C@H]3[C@H](N(C)C)C(O)=C(C(N)=O)C(=O)[C@@]3(O)C(O)=C1C2=O [tigecycline], the “3D tumor sphere formation” value is given as “successfully blocked”.
In the case of CC[C@H]1/C=C/C=C/C[C@@H](C)[C@H](O)[C@@](C)(O)C(=O)[C@@H](C)[C@H](O)[C@@H](C)C(=O)[C@@H](C)[C@H](O)[C@@H](C)/C=C/C(=O)O[C@@H]2[C@H](C)[C@H](CC1)O[C@]1(CC[C@H](C)[C@H](C[C@@H](C)O)O1)[C@H]2C [oligomycin], the “3D tumor sphere formation” value is listed as “successfully blocked”.
In the case of COc1nc2ccc(Br)cc2cc1[C@@H](c1ccccc1)[C@@](O)(CCN(C)C)c1cccc2ccccc12 [bedaquiline], the “3D tumor sphere formation” value is given as “successfully blocked”.

System: MCF7 cells
Experiment: mammosphere assay
Format: cell-based
Conditions: compared to Trilaciclib
Excerpt: Moreover, CSCs are strikingly resilient and highly resistant to cellular stress, which allows them to undergo anchorage-independent growth, especially under conditions of low-attachment. As a consequence, they form 3D spheroids, which retain the properties of CSCs and stem cell progenitors. In contrast, when subjected to growth in suspension, most “bulk” cancer cells die, via anoikis—a specialized type of apoptosis. […] Therefore, 3D spheroid formation is a functional read-out for stemness in epithelial cancer cells and allows one to enrich for a population of epithelioid cells with a stem-like phenotype. These 3D spheroids are also known as mammospheres when they are prepared using breast cancer cells, such as MCF7, among others.
In the case of CCCCCCCCCCCCCCCC(=O)CCN1CCN(c2ccc(Nc3ncc4cc5n(c4n3)C3(CCCCC3)CNC5=O)nc2)CC1 [formula [3]], the “inhibition of MCF7 cells in the mammosphere assay” value is reported as “remarkably improved inhibition”.
With CCCCCCCCCCCCCC(=O)N1CCN(c2ccc(Nc3ncc4cc5n(c4n3)C3(CCCCC3)CNC5=O)nc2)CC1 [formula [2]] the “inhibition of MCF7 cells in the mammosphere assay” value was “remarkably improved inhibition”.
